According to patent publication US20190298772A1, “COMBINATION THERAPY OF A T CELL-BASED THERAPY AND A BTK INHIBITOR” (Juno Therapeutics, Inc., priority 2016, published 2019):

What was measured:
[1] = tested on: anti-CD19 CAR T cells; experiment: Cytokine production in supernatants of CAR-T / K562-CD19 co-cultures (MSD); format: cell-based, human
Text: (§1) To generate CAR-expressing T cells, T cells were isolated by immunoaffinity-based enrichment from three healthy human donor subjects, and cells from each donor were activated and transduced with a viral vector encoding an anti-CD19 CAR. The CAR contained an anti-CD19 scFv, an Ig-derived spacer, a human CD28-derived transmembrane domain, a human 4-1BB-derived intracellular signaling domain and a human CD3 zeta-derived signaling domain. The nucleic acid construct encoding the CAR also included a truncated EGFR (tEGFR) sequence for use as a transduction marker, separated from the CAR sequence by a self-cleaving T2A sequence.
(§2) CAR-expressing CD4+ and CD8+ cells were mixed 1:1 for each donor, individually, and the pooled cells for each donor assessed in vitro under various conditions.
CAR-T cells generated as described above were plated at 100,000 cells/well on 96 well Poly-D-Lysine coated plates to which irradiated target cells (K562-CD19) were added at an effector to target ratio of 2.5:1. […] Culture supernatants were harvested every 24 hrs at days 1, 2, 3 and 4, and IFNγ, IL-2, TNFα, IL-4 and IL-10 were measured from the culture supernatants using cytokine kits from Meso Scale Discovery (MSD).

[2] = tested on: anti-CD19 CAR T cells; experiment: Cytolytic activity of anti-CD19 CAR T cells co-cultured with K562-CD19 target cells in the presence of ibrutinib; format: cell-based, human
Text: as §1, §2
CAR T cells generated as described above were plated in triplicate on Poly-D-Lysine plates and then co-cultured with ibrutinib-resistant CD19-expressing target cells (K562 cells transduced to express CD19, K562-CD19) at an effector to target (E:T) ratio of 2.5:1. The target cells were labeled with NucLight Red (NLR), to permit tracking of target cells by microscopy.

[3] = tested on: CD19+Nalm-6 disseminated tumor line; experiment: Nalm-6 disseminated tumor xenograft mouse model, ibrutinib in drinking water; format: in vivo, NSG mice
Description: (§3) NSG mice described in Example 2 were intravenously injected on day 0 with 5×10^5 Nalm-6 cells expressing firefly luciferase. […] To permit assessment of the effect of a combination therapy with the inhibitor, a suboptimal dose of anti-CD19 CAR T cells was i.v. injected into the mice at 5×10^5/mouse at day 5. As a control, mice were administered the vehicle control without administration of the CAR-T cells or inhibitor.

[4] = tested on: anti-CD19 CAR T cells; experiment: TH1 phenotype and marker flow cytometry of CAR T cells from serial restimulation; format: cell-based, human
Description: (§4) The ability of cells to expand ex vivo following repeated stimulations in some aspects can indicates capacity of CAR-T cells to persist (e.g., following initial activation) and/or is indicative of function and/or fitness in vivo (Zhao et al. (2015) Cancer Cell, 28:415-28). Anti-CD19 CAR+ T cells generated as described above were plated in triplicate at 100,000 cells/well on 96 well Poly-D-Lysine coated plates, and irradiated target cells (K562-CD19) were added at an effector to target ratio of 2.5:1. […] A total of 7 rounds of stimulation during a 25 day culture period were carried out.
A serial restimulation assay was performed as described above and cells were harvested at various times and analyzed by flow cytometry to assess percentage of TH1-phenotype (assessed as CD4+CXCR3+CRTH2−) T cells or TH2-phenotype (assessed as CD4+CXCR3−CRTH2+).

[5] = tested on: anti-CD19 CAR T cells; experiment: Gene expression analysis (Nanostring Immune V2 panel) after 18 days serial stimulation; format: cell-based, human; details: 50 nM or 500 nM; day 18
Text: At day 18 after serial stimulation, RNA was isolated from anti-CD19 CAR T cells and Nanostring Immune V2 panel tests were run across 594 genes. The log 2 (fold change) of each gene was plotted against the −log 10(Raw p-value) derived from ANOVA tests of unscaled housekeeping gene normalized to count data for treatment versus control.

[6] = tested on: CD19+Nalm-6 disseminated tumor line; experiment: Nalm-6 disseminated tumor xenograft mouse model, ibrutinib by daily oral gavage; format: in vivo, NOD/Scid/gc−/− (NSG) mice
Text: On day zero (0), NSG mice were intravenously injected with 5×10^5 Nalm-6 cells expressing firefly luciferase. […] To permit assessment of the effect of a combination therapy with the inhibitor, a suboptimal dose of anti-CD19 CAR T cells from two different donors (generated by transducing cells derived from samples of human donor subjects essentially as described above) were i.v. injected into each mouse at a concentration of 5×10^5 CAR+ T cells per mouse at day 5. […] Eight (N=8) mice per group were monitored.
Following treatment as described above, tumor growth over time was measured by bioluminescence imaging and the average radiance (p/s/cm^2/sr) was measured. Survival of treated mice also was assessed over time.

[7] = tested on: anti-CD19 CAR+ T cells; experiment: Pharmacokinetic analysis of CAR+ T cells and tumor cells in blood, bone marrow and spleen; format: in vivo, NSG mice
Description: as §3
Samples were analyzed to assess presence and levels of CAR T cells (based on expression of the surrogate marker using an anti-EGFR antibody) and/or tumor cells at days 7, 12, 19 and 26 post CAR+ T cell transfer.

[8] = tested on: anti-CD19 CAR-T cells from DLBCL subjects; experiment: Serial restimulation and cytolytic function of anti-CD19 CAR-T cells manufactured from DLBCL patients; format: cell-based, human
Text: Anti-CD19 CAR-T cells were generated substantially as described in Example 1, except that T cells were isolated from two different human subjects having diffuse large B-cell lymphoma (DLBCL). […] Cells were subjected to serial restimulation over a 21 day culture period and monitored for cell expansion and cytotoxic activity.

[9] = tested on: anti-CD19 CAR T cells; experiment: Serial restimulation assay of anti-CD19 CAR+ T cells with K562-CD19 target cells; format: cell-based, human
Text: as §1, §2, §4

[10] = tested on: anti-CD19 CAR+ T cells; experiment: Ex vivo immunophenotyping (t-SNE) of CAR+ T cells from bone marrow at day 12; format: in vivo, NSG mice; details: day 12 post CAR T transfer
Description: as §3
Cells were assessed for surface markers CD44, CD45RA, CD62L, CD154, CXCR3, CXCR4, and PD-1 by flow cytometry and T-distributed stochastic neighbor embedding (t-SNE) high dimensional analysis was performed using FlowJo software. […] FACs histograms showing the individual expression profiles of CD4, CD8, CD62L, CD45RA, CD44 and CXCR3 from the 4 gated t-SNE in FIG. 8B overlaid on the expression of the total population (shaded) is shown in FIG. 8C.

[11] = tested on: CAR-expressing T cells; experiment: RNA-Seq molecular signature of CAR-expressing T cells after 18 days serial stimulation; format: cell-based, human; details: day 18
Description: RNA isolation was performed using the RNEasy Micro Kit (Qiagen). Samples were sequenced and RNASeq reads were mapped to the human genome (GRCh38) and aligned to the GENCODE release 24 gene model. […] Differentially expressed genes were identified by imposing a log2 fold change cutoff of 0.5 and a Benjamini-Hochberg adjusted false discovery rate (FDR) cutoff of 0.05.

[12] = tested on: anti-CD19 CAR T cells; experiment: Expression of CAR-T cell surface markers by flow cytometry after stimulation with irradiated K562-CD19 cells; format: cell-based, human
Text: as §1, §2
CAR-T cells generated as described above were plated at 100,000 cells/well on 96 well Poly-D-Lysine coated plates. Irradiated K562-CD19 target cells were added at an effector to target ratio of 2.5:1. […] Cells were harvested at 1, 2, 3, and 4 days, and were analyzed by flow cytometry for T cell activation and differentiation surface markers CD69, CD107a, PD-1, CD25, CD38, CD39, CD95, CD62L, CCR7, CD45RO and for truncated EGFR (a surrogate marker for CAR-transduced cells).

C=CC(=O)N1CCC[C@@H](n2nc(-c3ccc(Oc4ccccc4)cc3)c3c(N)ncnc32)C1 [ibrutinib]
IFN-γ and IL-2 production ([1]; 50 nM ibrutinib): some increase | cytokine production ([1]; 50 nM ibrutinib, some donors): modestly increased cytokine production | cytokine concentrations ([1]; physiological concentrations of ibrutinib): did not significantly decrease cytokine concentrations | cytolytic function of anti-CD19 CAR T cells ([2]; all concentrations tested (5000, 500, 50, 5, 0.5 nM) during co-culture): did not inhibit the cytolytic function | target cell killing ([2]; one donor, P<0.0001): modestly increased target cell killing | cytolytic activity of anti-CD19 CAR-expressing T cells (target cell killing normalized to untreated control, AUC) ([2]; two donors, up to supra-physiological 500 nM, E:T 2.5:1, 4 days): did not significantly impact cytolytic activity | tumor growth vs CAR T with vehicle ([3]; ibrutinib 25 mg/kg/day in drinking water plus CAR T): significantly (P<0.001) decreased tumor growth | median survival vs CAR T + vehicle ([3]; ibrutinib 25 mg/kg/day in drinking water plus suboptimal anti-CD19 CAR-T cells, p<0.001): increased median survival | percentage of TH1 cells ([4]; 500 nM, 18-day serial stimulation, P<0.01): further enhanced the percentage of TH1 cells | additional CAR T activation or memory markers ([4]; CAR T cells from serial stimulation assay): No significant effects | percentage of CAR+ T cells with TH1 phenotype (CD4+CXCR3+CRTH2−) ([4]; after serial stimulation, greater with increasing concentrations): increase the percentage | gene expression across 594 genes [5]: did not significantly alter gene expression | median survival vs CAR T + vehicle ([6]; ibrutinib 25 mg/kg qd P.O. plus suboptimal anti-CD19 CAR T cells, FIG. 6C): increased median survival | tumor growth vs CAR-T cells and vehicle ([6]; ibrutinib 25 mg/kg qd P.O. plus suboptimal dose anti-CD19 CAR T cells): significantly decreased tumor growth | tumor burden (average radiance) vs vehicle ([6]; ibrutinib alone, 25 mg/kg qd P.O., no CAR-T cells): no effect on tumor burden | survival at greater time points vs CAR T and vehicle ([6]; ibrutinib plus CAR T, two donors, FIG. 6D, p<0.001): significantly increased survival | tumor cells in blood, bone marrow or spleen vs vehicle ([7]; CAR+ cell treatment combined with ibrutinib): significantly fewer tumor cells | circulating CAR+ T cells vs CAR+ T cells and vehicle ([7]; blood, days 7-26 post transfer, ibrutinib in drinking water): significant increase in circulating CAR+ T cells | number of cells in the blood ([7]; day 19 post CAR-T cell transfer, p<0.05): significant increase in the number of cells in the blood | cytolytic activity ([8]; 50 nM, after 16 days, one patient, P<0.01): increase in cytolytic activity | cytolytic function ([8]; 500 nM, after 16 days serial stimulation, each subject): increase in cytolytic function | proliferation (cell doublings) of patient-derived CAR T cells ([8]; 50 and 500 nM, 21 day culture, two DLBCL patients): did not inhibit the proliferation | CD62L expression by flow cytometry ([9]; after 18 days serial stimulation, donors 2 and 3): significant increase in CD62L expression | cell numbers and population doublings ([9]; day 18, 50 and 500 nM, two of three donors): enhanced cell numbers and population doublings | cell counts ([9]; donor 3, day 18, highest concentration tested): Non-significant, increased cell counts | population 4 (CD4+CD44hi CXCR3 CD45RAhi CD62Lhi) as share of CAR-T cells ([10]; bone marrow, ibrutinib-treated animals): 15.2% | populations 2 and 4 in bone marrow vs control mice ([10]; CAR T plus ibrutinib): increase | gene expression changes ([11]; 50 nM): not significant, similar trends | number of protein-coding genes with significantly altered expression ([11]; 500 nM, FDR<0.05, absLog2FC>0.5): 23 | expression of HES6, HIC1, LZTFL1, NRIP1, CD38 and RARRES3 ([11]; ibrutinib vs control): downregulation | expression of MSC ([11]; ibrutinib vs control): upregulation | expression of SELL/CD62L ([11]; ibrutinib vs control): increases | expression of granzyme A and CD38 ([11]; ibrutinib vs control): decreases | expression of truncated EGFR, CD25, CD38, CD39, CD95, CD62L, CCR7, CD45RO ([12]; 5000, 500, 50, 5 and 0.5 nM, 3 donors, up to 4 days): no significant effect | phenotype as central (TCM) or effector (TEM) memory subsets (CCR7, CD45RA) ([12]; over four days after stimulation): did not affect the phenotype | expression levels of CD69, CD107a or PD-1 on CD4+ or CD8+ cells ([12]; seen at highest (supraphysiological) concentration): subtle decrease
